Experiments:
Type in all cases: biochemical
[1] = target: T1, human p70S6 kinase (p70S6K, kinase domain residues 1-421, T412E mutation) (Homo sapiens, UniProt P23443, T412E); assay: p70S6 kinase assay, Luciferase-Coupled Chemiluminescent Kinase assay (LCCA); details: 5 μM ATP, 12 nM p70S6K; read-out: p70S6K inhibition IC50
T1 construct: human p70S6 kinase domainresidues 1-421, containing a T412E mutation; made in house
Summary of the method: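 Baculovirus-expressed kinase domain (12 nM) reacted 2 h at ambient temperature with 5 μM ATP and 5 μM RRRLSSLRA peptide. Buffer was Tris pH 7.5 with MgCl2, MnCl2, DTT and Triton X-100. Remaining ATP was read by luciferase-luciferin chemiluminescence. IC50 came from 10-point dose-response with a four-parameter Hill fit.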

[2] = target: T2, human Akt2 kinase (kinase domain residues K146-R480) (Homo sapiens, UniProt P31751); assay: Akt2 kinase assay, Luciferase-Coupled Chemiluminescent Kinase assay (LCCA); details: 2 μM ATP, 10 nM Akt2; read-out: Akt-2 inhibition IC50
T2 construct: human Akt2 kinase domain residues K146-R480; made in house
Method: Kinase activity and compound inhibition are investigated using one or more of the three assay formats described below. The ATP concentrations for each assay are selected to be close to the Michaelis-Menten constant (KM) for each individual kinase. Dose-response experiments are performed at 10 different inhibitor concentrations in a 384-well plate format. The data are fitted to four-parameter equation (2) below; where Y is the observed signal, X is the inhibitor concentration, Min is the background signal in the absence of enzyme (0% enzyme activity), Max is the signal in the absence of inhibitor (100% enzyme activity), IC50 is the inhibitor concentration at 50% enzyme inhibition and H represents the empirical Hill's slope to measure the cooperativity. Typically H is close to unity. Y=Min+(Max−Min)/(1+(X/IC50)^H) Equation (2) p70S6 Kinase Assay
Biochemical activity of Akt2 kinase was assessed using a Luciferase-Coupled Chemiluminescent Kinase assay (LCCA) format. Kinase activity was measured as the percent ATP remaining following the kinase reaction. Remaining ATP was detected by luciferase-luciferin-coupled chemiluminescence. Specifically, the reaction was initiated by mixing test compounds, 2 μM ATP, 5 μM crosstide peptide and 10 nM Akt2 (baculovirus expressed human Akt2 kinase domain residues K146-R480) in a 20 uL assay buffer (20 mM Tris-HCL pH 7.5, 10 mM MgCl2, 0.03% Triton X-100, 1 mM DTT, 3 mM MnCl2). The mixture is incubated at ambient temperature for 2 hours after which 20 μL luciferase-luciferin mix is added and the chemiluminescent signal read using a Wallac Victor2 reader. The luciferase-luciferin mix consists of 50 mM HEPES, pH 7.8, 8.5 μg/mL oxalic acid (pH 7.8), 5 (or 50) mM DTT, 0.4% Triton X-100, 0.25 mg/mL coenzyme A, 63 uM AMP, 28 μg/mL luciferin and 40,000 units/mL luciferase.

[3] = target: T3, human Akt1 kinase (kinase domain residues R144-A480, activated with PDK1) (Homo sapiens, UniProt P31749); assay: Akt1 kinase assay, Luciferase-Coupled Chemiluminescent Kinase assay (LCCA); details: 1 μM ATP, 1.3 nM Akt1; read-out: Akt-1 inhibition IC50
T3 construct: made in house
Summary of the method: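 Baculovirus-expressed PDK1-activated Akt1 kinase domain (R144-A480), 1.3 nM, with 5 μM crosstide and 1 μM ATP in Tris pH 7.5 with MgCl2/MnCl2, 3 h at ambient temperature. Remaining ATP read by luciferase-luciferin chemiluminescence; 10-point IC50 from four-parameter fit.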

T2 sequence (P31751 146-480): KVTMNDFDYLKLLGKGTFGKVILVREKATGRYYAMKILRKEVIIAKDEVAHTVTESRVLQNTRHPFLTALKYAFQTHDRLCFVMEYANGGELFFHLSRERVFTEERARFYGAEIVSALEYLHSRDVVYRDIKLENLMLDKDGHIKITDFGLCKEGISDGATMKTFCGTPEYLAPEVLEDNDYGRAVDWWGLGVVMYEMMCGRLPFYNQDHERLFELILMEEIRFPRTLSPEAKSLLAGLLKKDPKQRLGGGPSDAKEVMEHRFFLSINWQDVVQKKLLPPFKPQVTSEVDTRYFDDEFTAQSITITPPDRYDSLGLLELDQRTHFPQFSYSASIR
T1 sequence (P23443 1-421 T412E): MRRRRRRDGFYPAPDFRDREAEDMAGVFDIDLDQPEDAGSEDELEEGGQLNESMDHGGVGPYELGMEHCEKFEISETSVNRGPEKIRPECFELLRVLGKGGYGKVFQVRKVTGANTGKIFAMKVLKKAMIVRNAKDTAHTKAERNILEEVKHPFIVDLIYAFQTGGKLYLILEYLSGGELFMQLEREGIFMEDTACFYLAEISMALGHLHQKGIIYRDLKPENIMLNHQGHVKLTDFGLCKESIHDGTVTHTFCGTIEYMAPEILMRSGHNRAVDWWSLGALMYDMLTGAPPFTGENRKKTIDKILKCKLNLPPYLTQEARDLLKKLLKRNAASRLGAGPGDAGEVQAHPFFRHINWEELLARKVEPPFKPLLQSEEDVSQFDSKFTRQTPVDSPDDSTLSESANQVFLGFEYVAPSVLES
T3 sequence (P31749 144-480): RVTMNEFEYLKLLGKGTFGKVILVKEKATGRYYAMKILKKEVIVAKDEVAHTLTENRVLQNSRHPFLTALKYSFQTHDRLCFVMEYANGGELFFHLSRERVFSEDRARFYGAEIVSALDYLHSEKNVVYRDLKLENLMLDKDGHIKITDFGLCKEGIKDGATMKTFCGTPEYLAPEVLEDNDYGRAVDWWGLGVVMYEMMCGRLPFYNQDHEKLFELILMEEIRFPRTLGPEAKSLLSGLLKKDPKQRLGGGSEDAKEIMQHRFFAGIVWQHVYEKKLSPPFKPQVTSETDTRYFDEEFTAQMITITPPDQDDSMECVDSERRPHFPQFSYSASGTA

IC50 [1] [nM]	IC50 [2] [nM]	IC50 [3] [nM]	Structure (SMILES)
> 2000	> 2000	> 2000	COc1cc(OC)nc(C(c2ccccc2)N2CCN(c3ncnc4[nH]nc(Br)c34)CC2)n1 (stereo not drawn) [Entry 77, 4-{4-[[4,6-bis(methyloxy)pyrimidin-2-yl](phenyl)methyl]piperazin-1-yl}-3-bromo-1H-pyrazolo[3,4-d]pyrimidine]
50 to 500	> 2000	> 2000	Brc1n[nH]c2ncnc(N3CCN(Cc4ncc[nH]4)CC3)c12 [Entry 52, 3-bromo-4-[4-(1H-imidazol-2-ylmethyl)piperazin-1-yl]-1H-pyrazolo[3,4-d]pyrimidine]
50 to 500	> 2000	> 2000	Fc1cccc(Cl)c1CN1CCN(c2ncnc3[nH]nc(Br)c23)CC1 [Entry 56, 3-bromo-4-{4-[(2-chloro-6-fluorophenyl)methyl]piperazin-1-yl}-1H-pyrazolo[3,4-d]pyrimidine]

— patent publication US7994172B2, “[1H-pyrazolo[3, 4-D]pyrimidin-4-yl]-piperidine or -piperazine compounds as serine-theoronine kinase modulators (P70s6k, Atk1 and Atk2) for the treatment of immunological, inflammatory and proliferative diseases” (Exelixis, Inc., priority 2004, dated 2011)
